Data taken from patent publication US20260250293A1, “ULODESINE SALT” (Laevoroc Immunology AG, priority 2021, published 2026).
Like-named read-outs stand apart in the source and are kept apart here.

Assays:
Assay type in all cases: physicochemical
[1] = Thermodynamic solubility study in water, SGF, FaSSIF and FeSSIF; conditions: for XRPD of residual solid: after 24 hrs solubility study
Procedure: Then all the samples were vortex for 30 s to disperse homogenously and placed into a constant temperature shaking incubator at 37° C. with 200 rpm for 24 hrs. If the API dissolved, more material will be added to keep suspension state. The concentration, XRPD and pH were tested at desired time points.

[2] = Dynamic vapour sorption (DVS); conditions: for DVS hygroscopicity / DVS water uptake: 25° C.
Procedure: The moisture sorption profile was generated at 25° C. using a DVS moisture balance flow system (Model Advantage 1.0) with the following conditions: sample size approximately 10 mg, drying 25° C. for 60 minutes, adsorption range 0% to 95% RH, desorption range 95% to 0% RH, and step interval 5%. The equilibrium criterion was <0.01% weight change in 5 minutes for a maximum of 120 minutes.

[3] = Aqueous formulation stability; conditions: for formulation stability: in water at 0.1 mg/ml (calculated by freebase), room temperature, 14 days
Procedure: The sample condition was maintained at 21-25° C. and protected from light.
Duplicate samples were prepared by transfer 4 ml solution into an 8 mL glass bottle and all the samples were placed in dark under room temperature. At desired time points of 0, 3, 7, 10 and 14 days, the sample concentration was analysed by HPLC and the pH value was measured.

[4] = Solid state stability study; conditions: for Purity(%): HPLC
Procedure: (closed) and 40° C./75% RH (open) conditions during 2 weeks. […] At 0, 1 week and 2 weeks' time points, the corresponding samples will be sampled for purity determination by HPLC to assess the chemical stability. Also, one more sample was prepared under corresponding condition for appearance and XRPD test to evaluate the physical stability.

[5] = solubility sample in FaSSIF(pH 6.5)
[6] = solubility sample in FeSSIF(pH 5)
[7] = solubility sample in SGF(pH 1.2)
[8] = listed as Ulodesine hemi-L-glutarate
[9] = 40° C./75% RH open, 2 weeks, listed as Ulodesine Hemi L-glutarate
[10] = 40° C./75% RH open, 2 weeks, listed as Ulodesine Hemi succinate
[11] = 60° C. close, 2 weeks, listed as Ulodesine Hemi succinate

SMILES	pH value at 24 hrs [1, 5]	pH value at 24 hrs [1, 6]	pH value at 24 hrs [1, 7]	pH value at 24 hrs ([1]; solubility sample in water)	XRPD pre and post DVS [2]	DVS hygroscopicity [2]	DVS water uptake ([2]; at 80% RH)	DVS water uptake ([2]; at 95% RH) [% at 95% RH)]	TRS(%) (=100% − purity %) ([4]; 0 d)	Purity(%) ([4]; 0 d)	TRS Change(%) (Compared to 0 d) ([4]; 40° C./75% RH open, 1 week)	TRS(%) (=100% − purity %) ([4]; 40° C./75% RH open, 1 week)	Purity(%) ([4]; 40° C./75% RH open, 1 week)	Purity(%) ([4]; 40° C./75% RH open, 2 weeks)	TRS Change(%) (Compared to 0 d) ([4]; 60° C. close, 1 week)	TRS(%) (=100% − purity %) ([4]; 60° C. close, 1 week)	Purity(%) ([4]; 60° C. close, 1 week)	TRS Change(%) (Compared to 0 d) ([4]; 60° C. close, 2 weeks)	Purity(%) ([4]; 60° C. close, 2 weeks)	further results
O=c1nc[nH]c2c(CN3C[C@H](CO)[C@@H](O)C3)c[nH]c12 [Ulodesine hemi L-glutarate]	7.72	7.78	7.75	7.58	No change	Moderately hygroscopic	(2.53% at 80% RH;	27.06	0.60	99.403	−0.12	0.48	99.524	99.600	0.15	0.74	99.258	0.42% TRS	98.984	XRPD of residual solid ([1]; FaSSIF(pH 6.5)): changed compared to initial solid form; XRPD of residual solid ([1]; FeSSIF(pH 5)): changed compared to initial solid form; XRPD of residual solid ([1]; water): changed compared to initial solid form; DVS hygroscopicity [2, 8]: moderately hygroscopic; DVS water uptake ([2]; at 80% RH, listed as Ulodesine hemi-L-glutarate): 2.53%; XRPD pre and post DVS [2, 8]: no change; change of appearance, concentration and purity of solution ([3]; in water at 0.1 mg/ml (cal. by freebase), 14 days at room temperature, dark): no significant change; formulation stability [3]: physically and chemically stable for 14 days; formulation stability ([3]; listed as ulodesine hemi L-glutarate): good formulation stability; degradation (related substance increase) ([4]; 40° C./75% RH condition, during 2 weeks): no related substance increased; TRS Change(%) (Compared to 0 d) [4, 9]: −0.20%; TRS(%) (=100% − purity %) [4, 9]: 0.40%; TRS Change(%) (Compared to 0 d) ([4]; 60° C. close, 2 weeks, listed as Ulodesine Hemi L-glutarate): 0.42%; appearance and XRPD (polymorph) change ([4]; during 2 weeks under 60° C. and 40° C./75% RH conditions): no appearance and polymorph change; chemical stability based on the purity result ([4]; under 40° C./75% RH condition): more chemically stable than Ulodesine Hemi succinate
O=c1nc[nH]c2c(CN3C[C@H](CO)[C@@H](O)C3)c[nH]c12 [Ulodesine hemi adipinate]	6.40	6.09	5.60	6.56	No change	Moderately hygroscopic	(3.68% at 80% RH;	15.80	–	–	–	–	–	–	–	–	–	–	–	–
O=c1nc[nH]c2c(CN3C[C@H](CO)[C@@H](O)C3)c[nH]c12 [Ulodesine hemi succinate, reference compound]	6.16	5.75	5.32	6.34	No change	Moderately hygroscopic	(6.97% at 80% RH;	11.86	0.06	99.942	0.33	0.39	99.613	99.782	0.13	0.18	99.816	0.34% TRS increased at	99.601	TRS Change(%) (Compared to 0 d) ([4]; 40° C./75% RH open, 2 weeks): 0.16% TRS increased at; TRS Change(%) (Compared to 0 d) [4, 10]: 0.16%; TRS(%) (=100% − purity %) [4, 10]: 0.22%; TRS Change(%) (Compared to 0 d) [4, 11]: 0.34%; TRS(%) (=100% − purity %) [4, 11]: 0.40%
